Laboratory results from patent US20070248646A1, “Use of azurocidin inhibitors in prevention and treatment of ocular vascular leakage” (priority 2006, published 2007).

How the values were obtained:
[1] = tested on: retinal vascular permeability; assay: Qualitative evaluation of retinal vascular permeability with 20-kDa FITC conjugated dextran; format: in vivo, Brown Norway rats; conditions: flat-mount retinas, VEGF-injected eyes with or without aprotinin
Description: Retinal vascular permeability was documented in a histological manner by intravenous injection of 20-kDa FITC conjugated dextran (50 mg/Kg, Sigma Aldrich). Rats were sacrificed 30 minutes later with intracardiac perfusion of 4% paraformaldehyde to fix the dextran conjugate in the tissues. The retinas were carefully dissected and flat mounted in anti-fading medium (Vector Laboratories). Flat-mount retinas were examined by fluorescent microscopy. Digital color enhancement (green) was equally applied to all images for improved visualization of fluorescence.

[2] = tested on: isolated leukocytes; conditions: VEGF 5-500 ng/ml, 20 minutes
[3] = tested on: VEGF-induced retinal leukostasis; assay: Concanavalin A ex vivo retinal leukostasis quantification, VEGF-induced; format: in vivo, Brown Norway rats
Description: (§1) This study employed Brown Norway rats, AZ (1 μg, 10 μg, 20 μg), PBS, aprotinin, VEGF164, and polyclonal anti-AZ antibody (1 μg). Briefly, Brown Norway rats received intravitreal injections of AZ (1 μg, 10 μg and 20 μg) in one eye and PBS in the contralateral eye. BRB breakdown was quantified using the Evans Blue (EB) technique at 1 hour, 3 hours, and 24 hours after intravitreal injection of AZ or PBS. To assess whether AZ induced retinal leukostasis, firm leukocyte adhesion was quantified at 3 hours and 24 hours post AZ injection (10 μg) using the ex vivo conconavalin leukostasis assay. To block AZ, rats were treated with a single intravenous injection of aprotinin (30,000KIU), prior to the intravitreal injections. To investigate whether AZ was involved in VEGF-induced BRB breakdown, rats received intravitreal injections of 50 ng recombinant mouse VEGF164 in one eye and PBS in the other eye and were treated intravenously with aprotinin (50,000KIU every eight hours) or polyclonal anti-AZ antibody (1 μg). BRB breakdown and retinal leukostasis were quantified 24 hours after VEGF injection.
Deep anesthesia was induced with xylazine and ketamine as above. The chest cavity was carefully opened and the left ventricle was entered with a 14-gauge perfusion cannula fixed to a vessel clamp; care was taken to avoid ventricular obstruction. The right atrium was opened with a 12-gauge needle to achieve outflow. With the heart providing the motive force, 250 ml/kg PBS (roughly 30 ml of PBS quickly) was perfused to clear erythrocytes and non-sticking leukocytes, followed by perfusion with FITC-coupled Concanavalin A lectin (20 μg/ml in PBS, pH 7.4, total concentration 5 mg/kg) (Vector Labs, Burlingame, Calif.). The latter stained adherent leukocytes and the vascular endothelium. Lectin staining was followed by PBS perfusion (30 ml quickly).
The retinas were flat-mounted in a water-based fluorescence-anti-fading medium (Southern Biotechnology, Birmingham, Ala.) and imaged via fluorescence microscopy (Leica upright microscope, Hamamatsu digital high sensitivity camera, openlab imaging software). The total number of adherent leukocytes per retina was counted in a masked fashion.

[4] = tested on: murine brain microvascular endothelial cells (bEND3); assay: Transendothelial electrical resistance (TEER), in vitro model of the BBB; format: cell-based; conditions: AZ 25 μg/ml, VEGF 100 ng/ml
Description: The purpose of this experiment was to investigate the direct effects of VEGF and/or AZ on the BBB. This study used an in vitro model of the BBB in which transendothelial electrical resistance (TEER) in barrier-privileged murine brain microvascular endothelial cells (bEND3) was measured. The results provide support that the direct effects of VEGF and AZ on the endothelium of the BBB, although related, may be distinct.
Murine brain microvascular endothelial cells (bEND3) were grown on 0.4 μm fibronectin-coated inserts in 24-well plates (BD Bioscience, San Jose, Calif.). After the cells reached confluency, the cells were stimulated with AZ (AZ, 25 μg/ml), VEGF (100 ng/ml) or both. Electrical resistance was measured at the indicated time-points after the treatment by using a volt-ohmmeter (EVOM, World Precision Instruments, Sarasota, Fla.) with the electrode reproducibly positioned in each well. Transendothelial electrical resistance (TEER) values for each Transwell were calculated by subtracting the electrical resistance of the blank wells (coated filters without cells) prepared and treated as the experimental samples. All experiments were carried out in quadruplicate. The results were expressed as Mean±SEM from n=4 independent experiments.

[5] = tested on: VEGF-induced blood retinal barrier breakdown; assay: VEGF-induced blood retinal barrier breakdown (Evans Blue); format: in vivo, Brown Norway rats; conditions: 24 hours after intravitreal 50 ng VEGF
Description: as §1
Rats received intravitreous injections of 5 μl of sterile phosphate-buffered saline (PBS) containing 50 ng VEGF164 (R&D Systems, Minneapolis, Minn.) in one eye and 5 μl of sterile phosphate-buffered saline (PBS) in the contralateral eye. The retinas were analyzed for leakage 24 hours after VEGF injection.
In a second group, the rats were additionally treated intravenously with aprotinin (Trasylol®, Bayer Pharmaceuticals). 50,000KIU of aprotinin (5 ml of Trasylol®) was administered intravenously through the tail vein 1 hour before, as well as 8 hours and 16 hours after, the intravitreal injection of VEGF. The retinas were analyzed 24 hours after VEGF administration.
In a third group, rats were treated with intravitreous injections of 1 μg of goat anti-human azurocidin polyclonal antibody (5 μl of a 200 μg/ml antibody solution, Santa Cruz biotechnology) or control goat isotype IgG (R&D system) in the VEGF injected eye 6 hours after VEGF administration.
Retinal vascular permeability was quantified as previously described (Qaum et al. (2002) supra, Xu et al. (2001) INVEST. OPHTHALMOL. VIS. SCI. 42; 789-94). After the animals were deeply anesthetized, Evans blue dye (Sigma) dissolved in normal saline (30 mg/ml) was injected through the tail vein over 10 seconds at a dosage of 45 mg/kg. Blood samples were obtained from the left ventricle, just before perfusion at 2 hours, to obtain the time-average Evans blue dye plasma concentration. These blood samples were centrifuged at 12,000 rpm for 15 minutes and diluted to 1/10,000th of their initial concentration in formamide (Sigma). The background-subtracted absorbance was determined by measuring each sample at 620 nm (the absorbance maximum for Evans blue dye in formamide) and 740 nm (the absorbance minimum) with a spectrophotometer. The concentration of dye in the plasma was calculated from a standard curve of Evans blue dye in formamide. After the dye had circulated for 2 hours, the chest cavity was opened, and the rats were perfused through the left ventricle with 1% paraformaldehyde in citrate buffer (0.05 M, pH 3.5) at a physiological pressure of 120 mm Hg. The retinas were then carefully dissected under an operating microscope. After measurement of the retinal weight, Evans blue dye was extracted by incubating each retina in 0.180 ml of formamide for 18 hours at 70° C. The extract was ultracentrifuged at a speed of 14,000 rpm for 60 minutes at 25° C. Sixty microliters of the supernatant was used for spectrophotometric measurement at 620 nm and 740 nm. The background-subtracted absorbance was determined by measuring each sample at 620 nm (the absorbance maximum for Evans blue dye in formamide) and 740 nm (the absorbance minimum). The concentration of dye in the extracts was calculated from a standard curve of Evans blue dye in formamide. […]

[6] = tested on: retinal vascular permeability (blood retina barrier); assay: Evans Blue BRB breakdown after intravitreal azurocidin; format: in vivo, Brown Norway rats; conditions: intravitreal 20 μg
Description: as §1
Rats received intravitreous injections of 5 μl of sterile phosphate-buffered saline (PBS) containing 20 μg human neutrophil azurocidin (Athens Research and Biotechology, Atlanta, Ga.) in one eye and 5 μl of sterile phosphate-buffered saline (PBS) in the contralateral eye. The retinas were analyzed 45 minutes, 3 hours, and 24 hours after azurocidin injection.
Retinal vascular permeability was quantified as previously described (Qaum et al. (2002) supra, Xu et al. (2001) INVEST. OPHTHALMOL. VIS. SCI. 42; 789-94). After the animals were deeply anesthetized, Evans blue dye (Sigma) dissolved in normal saline (30 mg/ml) was injected through the tail vein over 10 seconds at a dosage of 45 mg/kg. Blood samples were obtained from the left ventricle, just before perfusion at 2 hours, to obtain the time-average Evans blue dye plasma concentration. These blood samples were centrifuged at 12,000 rpm for 15 minutes and diluted to 1/10,000th of their initial concentration in formamide (Sigma). The background-subtracted absorbance was determined by measuring each sample at 620 nm (the absorbance maximum for Evans blue dye in formamide) and 740 nm (the absorbance minimum) with a spectrophotometer. The concentration of dye in the plasma was calculated from a standard curve of Evans blue dye in formamide. After the dye had circulated for 2 hours, the chest cavity was opened, and the rats were perfused through the left ventricle with 1% paraformaldehyde in citrate buffer (0.05 M, pH 3.5) at a physiological pressure of 120 mm Hg. The retinas were then carefully dissected under an operating microscope. After measurement of the retinal weight, Evans blue dye was extracted by incubating each retina in 0.180 ml of formamide for 18 hours at 70° C. The extract was ultracentrifuged at a speed of 14,000 rpm for 60 minutes at 25° C. Sixty microliters of the supernatant was used for spectrophotometric measurement at 620 nm and 740 nm. The background-subtracted absorbance was determined by measuring each sample at 620 nm (the absorbance maximum for Evans blue dye in formamide) and 740 nm (the absorbance minimum). The concentration of dye in the extracts was calculated from a standard curve of Evans blue dye in formamide. Blood-retinal barrier breakdown was calculated as previously described (Qaum et al (2002) supra, Xu et al. (2001) supra). Briefly, as mentioned, the optical density of the formamide containing tissue-extracted Evans Blue dye and that of the animals' plasma were measured at two different wavelengths (620 and 740 nm). The values were then inserted into the following equation. [formula] Results were expressed as a percentage of the value in control eyes. As used through each of Examples 1 -12, the units for results from the EB technique are μl plasma/g retina/h. Ex Vivo Quantification of Retinal Leukostasis

Molecule	retinal distribution of intravenously injected 20 kDa FITC-conjugated dextran [1]	anticipated release of AZ from leukocytes [2]	leukocyte adhesion as a percentage of leukocyte adhesion in the contralateral PBS-injected eye ([3]; 24 hours after 50 ng VEGF, aprotinin 50,000 KIU i.v. 1 hour before, 8 and 16 hours after) [%]	fold increase in total number of leukocytes adherent to the retina vessels compared to PBS-injected eyes ([3]; intravitreal 50 ng VEGF, 24 hours post injection) [fold]	TEER after 6 hours until 24 hours after treatment [4]	TEER up to 6 hours after treatment [4]	TEER, first 30 minutes after incubation [4]	BRB breakdown as percentage of the value in control eyes [5]	Evans Blue retinal leakage in VEGF-injected eye ([5]; PBS eye 9.6±1.4 (VEGF alone), 5.4±1.4 (with aprotinin)) [μl plasma/g retina/h]	fold increase in retinal vascular leakage compared to the PBS injected eye ([5]; aprotinin i.v. 50,000KIU every eight hours, antibody 1 μg intravitreal 6 hours after VEGF) [fold]	time course of increase in retinal vascular permeability [6]	Evans Blue retinal leakage ([6]; 3 to 5 hours post injection, PBS eye 8.3±1.4) [μl plasma/g retina/h]	fold increase in Evans Blue retinal leakage compared to control eyes ([6]; 3 to 5 hours post injection, n=11) [fold]	Evans Blue retinal leakage ([6]; 24 hours post-injection, PBS eye 8.7±1.8) [μl plasma/g retina/h]	fold increase in Evans Blue retinal leakage compared to control eyes ([6]; 24 hours post-injection, n=6) [fold]	fold increase in Evans Blue retinal leakage compared to control eyes ([6]; approximately one to three hours after injection, n=8) [fold]	Evans Blue retinal leakage ([6]; one to three hours after injection, PBS eye 5.8±1.4) [μl plasma/g retina/h]
VEGF	fluorescence diffusely distributed throughout the retinal tissues at both intraluminal and extravascular locations	induces the release of AZ from leukocytes	308	3	showed no sign of recovery in the TEER values	remained at the reduced levels until 6 hours after treatment	rapid and significant drop of resistance	320%±74	29.7±7.5	3.2±0.74	–	–	–	–	–	–	–
azurocidin (protein, UniProt P20160 27-248, looked up, human neutrophil azurocidin) Azurocidin: IVGGRKARPRQFPFLASIQNQGRHFCGGALIHARFVMTAASCFQSQNPGVSTVVLGAYDLRRRERQSRQTFSISSMSENGYDPQQNLNDLMLLQLDREANLTSSVTILPLPLQNATVEAGTRCQVAGWGSQRSGGRLSRFPRFVNVTVTPEDQCRPNNVCTGVLTRRGGICNGDGGTPLVCEGLAHGVASFSLGPCGRGPDFFTRVALFRDWIDGVLNNPGP	–	–	–	–	started to recover to normal levels and reached higher values than untreated control	remained at the reduced levels until 6 hours after treatment	rapid and significant drop of resistance	–	–	–	with a peak one to three hours post administration	21±2.3	2.7	16.5±2.8	1.7	7.7	45±17
